Laboratory results taken from paper PMC8231113, “Protein Secondary Structure Affects Glycan Clustering in Native Mass Spectrometry” (Life, 2021).

Experiments:
Type in all cases: binding
[1] = molecular target: T1, alcohol dehydrogenase from Saccharomyces cerevisiae (ADH) (Saccharomyces cerevisiae, UniProt P00330); assay: Native MS glycan clustering to reference protein ADH; conditions: on ADH
T1 construct: alcohol dehydrogenase from Saccharomyces cerevisiae (ADH, CAS number 9031-72-5); purchased Sigma-Aldrich (Merck, Germany); host or cells: Saccharomyces cerevisiae
T1 sequence (P00330 2-348 limits assumed): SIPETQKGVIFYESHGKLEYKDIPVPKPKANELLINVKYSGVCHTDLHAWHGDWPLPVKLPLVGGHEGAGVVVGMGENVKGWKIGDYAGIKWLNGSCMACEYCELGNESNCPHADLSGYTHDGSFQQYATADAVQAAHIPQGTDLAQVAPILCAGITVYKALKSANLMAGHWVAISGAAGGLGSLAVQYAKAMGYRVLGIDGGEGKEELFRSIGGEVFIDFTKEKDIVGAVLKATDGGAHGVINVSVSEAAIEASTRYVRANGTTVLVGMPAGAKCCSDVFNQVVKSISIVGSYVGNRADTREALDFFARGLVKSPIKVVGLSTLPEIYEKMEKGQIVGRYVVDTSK
Protocol: (§1) Prior to MS analysis, purified P dimers were buffer exchanged to 150 mM ammonium acetate (Sigma-Aldrich, reagent grade ≥98%) at pH 7 via centrifugal filter units at 12,000× g at 4 °C (Vivaspin 500, MWCO 10000, Sartorius). Glycans for native MS analysis were mixed with 1 µM (per monomer) purified GII.4 Saga P dimer and 3 µM of the reference proteins at indicated concentrations. Native mass spectra were measured at room temperature in positive ion mode on a high mass modified LCT Premier mass spectrometer (Waters/Micromass, UK and MS Vision, the Netherlands) with a nano-ESI source. In house-made gold-coated electrospray capillaries were used for direct-sample infusion without any accessory chromatographic separation. The voltages and pressures were optimized for non-covalent protein complexes. The gas pressure used in the source hexapole was set between 6.5 and 6.8 × 10^−2 mbar argon optimized for minimal complex dissociation and the backing pressure of the source roughing pump was set between 7.0 and 8.5 mbar. Spectra were recorded with applied voltages for the capillary and cone of 1.20 kV and 240 V, respectively. Note that charge state distributions for P dimers were sometimes slightly shifted as was the degree of glycan clustering per charge state. These changes were highly variable and not quantifiable.
(§2) For calibration of the raw data, a 25 mg/mL cesium iodide spectrum from the same day was used. MassLynx V4.1 (Waters, Manchester, UK) was used to assign peak series to protein species and to determine the mass after minimal smoothing. Furthermore, OriginPro 2016 SR2 (OriginLab, Northampton, MA, USA) was used for spectral deconvolution and curve fitting. Correction for nonspecific protein-ligand clustering was performed as described. Corrected peak areas were averaged and normalized to the free-protein signal. Data were based on at least three independent measurements. Python code Panda and Numpy package were used to calculate the specific binding of P dimers according to the glycan clustering ratio obtained from the selected reference protein candidates. Seaborn and matplotlib.pyplot package were imported into a python script to plot the results. The module of sklearn.linear model was applied for linear regression. The matplotlib and heatmap package were used to plot the heatmap.
(§3) Theoretically, the KD is calculated by measuring the concentration of the three components (Pfree, Lfree, PL) in solution. Usually, these values are only indirectly accessible because they require ligand titration up to binding saturation. However, native MS allows for the directly measurement of Pfree and PL, from which Lfree can be calculated using the input concentrations. In the present work, the non-covalent interaction was measured in the gas phase assuming identical ESI and detection efficiency for free and glycan-associated proteins, both for the analyte and the reference protein. […] For P dimers, the equations reflect glycan binding to the individual monomers assuming that binding sites on each monomer are equal and independent.
(§4) Using R described in Equation (3), the KD calculation can be re-written into Equation (4) with the known initial concentration of glycan ligand [L0] and protein [P0], adapted from Sun et al.:(3) R=PLequil∕Pequil=∑nA(PL^n+)∕n∕∑nA(P^n+)∕n (4) KD =L0−RP0/1+R/R
(§5) For the carbohydrate-binding experiments, it was essential to keep the initial protein concentrations and pH value constant during the analysis of the protein-carbohydrate solutions. While acidification occurs in any ESI droplet, the remaining solution in the capillary changes pH over time. Therefore, accumulated spectra were obtained within 10 min after the voltages were applied to minimize the influence of pH changes during the measurements. […]

[2] = molecular target: T2, cytochrome c from equine heart (cyt c) (Equus caballus, UniProt P00004); assay: Native MS glycan clustering to reference protein cyt c; conditions: on Cyt c
T2 construct: cytochrome c from equine heart (cyt c, CAS number 9007-43-6); purchased Sigma-Aldrich (Merck, Germany); host or cells: equine heart
T2 sequence (P00004 whole entry): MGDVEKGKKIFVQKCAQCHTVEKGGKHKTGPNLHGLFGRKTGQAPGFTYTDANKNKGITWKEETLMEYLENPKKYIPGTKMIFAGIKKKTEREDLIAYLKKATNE
Protocol: as §1, §2, §3, §4, §5

[3] = molecular target: T3, myoglobin from equine heart (Myo) (Equus caballus, UniProt P68082); assay: Native MS glycan clustering to reference protein Myo; conditions: on Myo
T3 construct: myoglobin from equine heart (Myo, CAS number 100684-32-0); purchased Sigma-Aldrich (Merck, Germany); host or cells: equine heart
T3 sequence (P68082 whole entry): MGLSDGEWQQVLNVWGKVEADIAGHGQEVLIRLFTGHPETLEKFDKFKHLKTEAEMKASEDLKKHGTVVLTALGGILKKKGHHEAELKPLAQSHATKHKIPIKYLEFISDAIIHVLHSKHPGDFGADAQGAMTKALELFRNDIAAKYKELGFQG
Protocol: as §1, §2, §3, §4, §5

[4] = molecular target: T4, human apo-transferrin (apo-TFF) (Homo sapiens, UniProt P02787); assay: Native MS glycan clustering to reference protein apo-TFF; conditions: on apo-TFF
T4 construct: purchased Sigma-Aldrich (Merck, Germany)
T4 sequence (P02787 20-698): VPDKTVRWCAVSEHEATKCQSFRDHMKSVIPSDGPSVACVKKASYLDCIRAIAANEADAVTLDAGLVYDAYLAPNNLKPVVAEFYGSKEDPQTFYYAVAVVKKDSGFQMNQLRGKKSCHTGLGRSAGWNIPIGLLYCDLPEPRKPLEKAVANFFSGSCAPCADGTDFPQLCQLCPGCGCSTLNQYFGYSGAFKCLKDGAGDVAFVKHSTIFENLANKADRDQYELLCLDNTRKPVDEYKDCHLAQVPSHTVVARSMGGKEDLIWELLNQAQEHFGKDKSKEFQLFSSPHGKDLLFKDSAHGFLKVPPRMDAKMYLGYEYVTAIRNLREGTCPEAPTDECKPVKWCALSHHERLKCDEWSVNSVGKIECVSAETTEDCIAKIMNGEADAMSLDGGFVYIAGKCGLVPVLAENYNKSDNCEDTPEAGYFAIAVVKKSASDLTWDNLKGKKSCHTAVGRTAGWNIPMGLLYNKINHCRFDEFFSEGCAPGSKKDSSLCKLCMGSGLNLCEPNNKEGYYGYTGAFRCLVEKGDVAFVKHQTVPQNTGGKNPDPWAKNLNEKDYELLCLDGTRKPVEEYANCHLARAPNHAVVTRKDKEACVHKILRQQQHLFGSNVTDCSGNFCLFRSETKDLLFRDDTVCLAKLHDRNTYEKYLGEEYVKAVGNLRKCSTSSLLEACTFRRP
Protocol: as §1, §2, §3, §4, §5

Row | Compound | Glycan-Clustering Ratio R ([1]; 100 µM glycan) | Glycan-Clustering Ratio R ([1]; 200 µM glycan) | Glycan-Clustering Ratio R ([1]; 300 µM glycan) | Glycan-Clustering Ratio R ([1]; 400 µM glycan) | Glycan-Clustering Ratio R ([1]; 500 µM glycan) | Glycan-Clustering Ratio R ([2]; 100 µM glycan) | Glycan-Clustering Ratio R ([2]; 200 µM glycan) | Glycan-Clustering Ratio R ([2]; 300 µM glycan) | Glycan-Clustering Ratio R ([2]; 400 µM glycan) | Glycan-Clustering Ratio R ([2]; 500 µM glycan) | Glycan-Clustering Ratio R ([3]; 100 µM glycan) | Glycan-Clustering Ratio R ([3]; 200 µM glycan) | Glycan-Clustering Ratio R ([3]; 300 µM glycan) | Glycan-Clustering Ratio R ([3]; 400 µM glycan) | Glycan-Clustering Ratio R ([3]; 500 µM glycan) | Glycan-Clustering Ratio R ([4]; 100 µM glycan) | Glycan-Clustering Ratio R ([4]; 200 µM glycan) | Glycan-Clustering Ratio R ([4]; 300 µM glycan) | Glycan-Clustering Ratio R ([4]; 400 µM glycan) | Glycan-Clustering Ratio R ([4]; 500 µM glycan)
1 | CC(=O)N[C@H]1[C@H](O[C@H]2[C@@H](O)[C@@H](CO)O[C@H](O[C@@H]3[C@H](O)[C@@H](O)[C@H](O[C@H]4[C@H](O)[C@@H](O)C(O)O[C@@H]4CO)O[C@@H]3CO)[C@@H]2O)O[C@H](CO)[C@H](O)[C@@H]1O (stereo partly drawn) [Gb4, GalNAc β1-3 Galα1-4Galβ1-4Glc] | 0.34±0.04 | 0.66±0.03 | 0.81±0.11 | 1.03±0.08 | 1.26 ± 0.03 | 0.10±0.01 | 0.15±0.00 | 0.19±0.03 | 0.29±0.04 | 0.45 ± 0.02 | 0.14±0.02 | 0.17±0.03 | 0.20±0.03 | 0.30±0.01 | 0.37 ± 0.06 | 0.36±0.05 | 0.57±0.06 | 0.63±0.02 | 0.69±0.02 | 0.80 ± 0.05
2 | CC(=O)N[C@H]1[C@@H](O[C@H]2[C@@H](O)[C@@H](CO)O[C@@H](O[C@H]3[C@H](O)[C@@H](CO)OC(O)[C@@H]3NC(C)=O)[C@@H]2O[C@@H]2O[C@@H](C)[C@@H](O)[C@@H](O)[C@@H]2O)O[C@H](CO)[C@H](O)[C@@H]1O (stereo partly drawn) [HBGA A, GalNAcα1-3(Fucα-2)Galβ1-3GlcNAc] | 0.39± 0.02 | 0.65± 0.02 | 0.88± 0.10 | 0.98± 0.05 | 1.32 ± 0.10 | 0.18±0.03 | 0.16± 0.02 | 0.19± 0.03 | 0.27± 0.02 | 0.41 ± 0.09 | 0.13±0.03 | 0.16±0.03 | 0.22±0.03 | 0.29±0.04 | 0.34 ± 0.03 | 0.39±0.02 | 0.57±0.05 | 0.65±0.02 | 0.71±0.03 | 0.79 ± 0.03
3 | CC(=O)N[C@H]1C(O)O[C@H](CO)[C@@H](O)[C@@H]1O[C@@H]1O[C@H](CO)[C@H](O)[C@H](O[C@H]2O[C@H](CO)[C@H](O)[C@H](O)[C@H]2O)[C@H]1O[C@@H]1O[C@@H](C)[C@@H](O)[C@@H](O)[C@@H]1O (stereo partly drawn) [HBGA B, Galα1-3(Fucα1-2)Galβ1-3GlcNAc] | 0.42±0.03 | 0.64±0.06 | 0.97±0.08 | 1.02±0.08 | 1.45 ± 0.11 | 0.14±0.01 | 0.15±0.01 | 0.19±0.03 | 0.29±0.02 | 0.35 ± 0.03 | 0.14±0.03 | 0.18±0.02 | 0.19±0.06 | 0.31±0.04 | 0.36 ± 0.05 | 0.37±0.03 | 0.56±0.05 | 0.62±0.03 | 0.74±0.01 | 0.82 ± 0.03
